{"source": "patent US6416738B1", "about": "“Pretargeting methods and compounds” (NeoRx Corporation, priority 1973, dated 2002)", "key": {"[1]": {"experiment": "Excretion of neutral MAMA chelate-biotin conjugate", "conditions": "in vivo", "text": "Although the net overall charge of the conjugate is neutral, the polycarboxylate nature of the molecule generates regions of hydrophilicity and hydrophobicity. By altering the number and nature of the carboxylate groups within the conjugate, excretion may be shifted from kidney to gastrointestinal routes. For instance, neutral compounds are generally cleared by the kidneys; anionic compounds are generally cleared through the GI system."}, "HA peptide": {"tested_on": "HA peptide", "conditions": "physiological conditions, concentrations as low as 10^−13 M; cited from earlier work"}, "LS-180 tumor xenografts [2]": {"tested_on": "LS-180 tumor xenografts", "experiment": "Two-step pretargeting with NR-LU-10-avidin and 131I-PIP-biocytin", "assay_type": "in vivo, nude mice", "conditions": "200 μg NR-LU-10-avidin at t=0, 42 μg 131I-PIP-biocytin at t=36 h", "procedure": "^131I-PIP-biocytin was evaluated in a two-step pretargeting procedure in tumor-bearing mice. […] At t=0, the mice were injected with 200 μg of NR-LU-10-avidin conjugate labeled with ^125I using PIP-NHS (see Example IV.A.). At t=36 h, the mice received 42 μg of ^131I-PIP-biocytin. […] The described radiohalogenated biotin compounds are amenable to the same types of modifications described in Example VI above for ^186Re-chelate-biotin conjugates. In particular, the following PIP-polylysine-biotin molecule is made by trace labeling polylysine with ^125I-PIP, followed by extensive biotinylation of the polylysine. [drawing 47]"}, "[3]": {"experiment": "Time dependent cleavage of DOTA-biotin conjugates in serum (% avidin binding)", "assay_type": "in vitro ADME", "text": "The difference in serum stability between DOTA-LC-biotin and DOTA-SC-biotin might be explained by the fact that the SC derivative contains an aromatic amide linkage in contrast to the aliphatic amide linkage of the LC derivative, with the aliphatic amide linkage being more readily recognized by enzymes as a substrate therefor. This argument cannot apply to biotinidase, however, because biotinidase very efficiently cleaves aromatic amides. In fact, it is recognized that the simplest and most commonly employed biotinidase activity measuring method uses N-(d-biotinyl)-4-aminobenzoate (BPABA) as a substrate, with the hydrolysis of BPABA resulting in the liberation of biotin and 4-aminobenzoate (PABA). See, for example, B. Wolf, et al., “Methods in Enzymology,” pp. 103-111, Academic Press Inc., 1990. Consequently, one would predict that DOTA-SC-biotin, like its LC counterpart, would be a biotinidase substrate. […] A series of DOTA-biotin conjugates was therefore synthesized by the present inventors to determine which structural features conferred serum stability to the conjugates."}, "LS-180 tumor xenografts [4]": {"tested_on": "LS-180 tumor xenografts", "experiment": "Tumor uptake of PIP-biocytin after NR-LU-10-streptavidin", "assay_type": "in vivo, nude mice", "procedure": "The following data are based on experimentation with tumored nude mice (100 mg LS-180 tumor xenografts implanted subcutaneously 7 days prior to study) that received, at time 0, 200 μg of I-125 labeled NR-LU-10-Streptavidin conjugate (950 pmol), as discussed in Example XI above. At 24 hours, the mice received an i.v. injection of PIP-I-131-biocytin (40 μCi) and an amount of cold carrier PIP-I-127 biocytin corresponding to doses of 42 μg (69,767 pmol), 21 μg (34,884 pmol), 5.7 μg (9468 pmol), 2.85 μg (4734 pmol) or 0.5 μg (830 pmol)."}, "LS-180 tumor": {"tested_on": "LS-180 tumor", "experiment": "Two-step pretargeting in LS-180 animal model", "quoted_text": "and perform biodistributions at 2, 6, 24, 72, 120 hours after injection of radiolabeled biotinyl molecule"}, "[5]": {"molecular_target": "T1, Streptavidin-agarose beads (Streptomyces avidinii, UniProt P22629)", "T1 construct": "purchased Sigma S-1638", "T1 sequence (P22629 25-183)": "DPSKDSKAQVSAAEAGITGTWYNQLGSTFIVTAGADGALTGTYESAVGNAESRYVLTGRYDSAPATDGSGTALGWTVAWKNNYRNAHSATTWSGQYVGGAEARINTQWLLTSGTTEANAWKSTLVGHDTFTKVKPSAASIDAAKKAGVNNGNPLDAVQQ", "experiment": "Streptavidin-agarose bead binding", "conditions": "for Pellet: radioactivity bound to streptavidin-agarose beads; for Supernatant: radioactivity not bound to streptavidin-agarose beads", "procedure": "100 μl of 0.2 M sodium carbonate buffer, pH 9.2, was added to 2 mg (in 1.00 ml PBS) of PIP-125-labeled orosomucoid and to 2 mg PIP-125-labeled asialoorosomucoid. 60 μl of a 1.85 mg/ml solution of NHS-amino caproate biotin in DMSO was then added to each compound. The reaction mixtures were vortexed and allowed to sit at room temperature for 45 minutes. The material was purified by size exclusion column chromatography (PD-10, Pharmacia) and eluted with PBS. 1.2 ml fractions were taken, with fractions 4 and 5 containing the majority of the applied radioactivity (>95%). Streptavidin-agarose beads (Sigma S-1638) or -pellets were washed with PBS, and 20 μg of each biotinylated, radiolabeled protein was added to 400 μl of beads and 400 μl of PBS, vortexed for 20 seconds and centrifuged at 14,000 rpm for 5 minutes. The supernatant was removed and the pellets were washed with 400 μl PBS. This wash procedure was repeated twice more, and the combined supernatants were assayed by placing them in a dosimeter versus their respective pellets."}, "[6]": {"experiment": "Blood clearance and limited biodistribution of orosomucoid and asialoorosomucoid", "conditions": "for blood level: I-125-labeled protein i.v.", "quoted_text": "The asialoorosomucoid and orosomucoid starting material were radiolabeled with I-125 using PIP technology, as described in Example IV above.\nIn addition, two animals receiving each compound were sacrificed at 5 minutes post-administration and limited biodistributions were performed."}, "[7]": {"tested_on": "LS-180 human colon tumor xenografts", "experiment": "Three-step pretargeting in LS-180 xenograft model", "conditions": "for tumor uptake: antibody at time 0, avidin at 24 h", "text": "The experimental protocol was as follows:\nThe three radiolabels employed in this protocol are capable of detection in the presence of each other. It is also noteworthy that the sizes of the three elements involved are logarithmically different—antibody≅150,000; avidin≅66,000; and biotin≅1,000."}}, "note": "Ends that are not written are not given here."}
{"compound": "CN(CCSCc1ccccc1)CC(CCC(=O)NCCNC(=O)CC1SCC2NC(=O)NC21)NC(=O)CS", "note": "(centres unmarked) [neutral MAMA chelate-biotin conjugate]", "values": [{"measurement": "kidney excretion", "setting": "[1]", "value": "superior kidney excretion"}]}
{"compound": "pGlu-Pto-Pro-Gly-Gly-Ser-Lys-Val-Ile-Leu-Phe (PGGSKVILF; not fully specified (N-terminus); printed as pGlu-Pto-Pro-Gly-Gly-Ser-Lys-Val-Ile-Leu-Phe) [HA peptide]", "values": [{"measurement": "dissociation of HA dimer into monomers", "setting": "HA peptide", "value": "does not dissociate into monomers"}]}
{"compound": "O=C(CCCCC1SCC2NC(=O)NC21)NCCCC[C@H](NC(=O)c1ccc([125I])cc1)C(=O)O", "note": "(some centres unmarked) [PIP-Biocytin, p-[I-125]iodobenzoylbiocytin]", "values": [{"measurement": "131I-PIP-biocytin molecules per avidin molecule at tumor", "setting": "LS-180 tumor xenografts [2]", "value": "≈ 1.5"}, {"measurement": "% Avidin Binding", "setting": "[3]; 5 Minutes at 37° C.", "value": 75, "unit": "%"}, {"measurement": "% Avidin Binding", "setting": "[3]; 15 Minutes at 37° C.", "value": 57, "unit": "%"}, {"measurement": "% Avidin Binding", "setting": "[3]; 30 Minutes at 37° C.", "value": 31, "unit": "%"}, {"measurement": "peak tumor uptake", "setting": "LS-180 tumor xenografts [4]; 0.5 μg dose, 120 hour time point (96 hours after PIP-biocytin)", "value": 85.0, "unit": "% ID/G"}, {"measurement": "tumor localization", "setting": "LS-180 tumor xenografts [4]; three highest doses (42, 21, 5.7 μg), 4 hours after PIP-biocytin injection", "value": "about 600 pmol/g"}, {"measurement": "tumor uptake", "setting": "LS-180 tumor; 40 hour time point, PIP-BT at 37 hours following LU-10-StrAv", "value": "above 500 pMOL/G"}, {"measurement": "peak tumor uptake", "setting": "LS-180 tumor; 45 hours post-LU-10-StrAv administration", "value": "about 700 pMOL/G"}]}
{"compound": "asialoorosomucoid: orosomucoid treated with neuraminidase", "values": [{"measurement": "Pellet", "setting": "[5]", "value": 8.0, "unit": "%"}, {"measurement": "Supernatant", "setting": "[5]", "value": 92, "unit": "%"}, {"measurement": "uptake in the liver", "setting": "[6]; 5 minutes post-administration", "value": 86, "unit": "%"}, {"measurement": "blood level", "setting": "[6]; 5 minutes post-administration", "value": 0.4, "unit": "%"}, {"measurement": "blood clearance", "setting": "[6]; 5 minutes to 4 hours post-administration", "value": "clearing more rapidly than its orosomucoid counterpart"}]}
{"compound": "Avidin: avidin (MW≈66 kD), radiolabeled with 131I/PIP-NHS", "values": [{"measurement": "tumor uptake", "setting": "[7]; at 25 h", "value": "about 250 pmol/g"}, {"measurement": "tumor uptake", "setting": "[7]; at 32 h", "value": "~150", "unit": "pmol/g"}, {"measurement": "tumor uptake", "setting": "[7]; at 48 h", "value": "~50", "unit": "pmol/g"}, {"measurement": "tumor uptake", "setting": "[7]; at 120 h", "value": "~0", "unit": "pmol/g"}, {"measurement": "injected dose cleared from the blood", "setting": "[7]; mouse, in vivo", "value": "greater than 90%"}]}
{"compound": "orosomucoid: human alpha-1 acid glycoprotein [reference compound]", "values": [{"measurement": "Pellet", "setting": "[5]", "value": 10, "unit": "%"}, {"measurement": "Supernatant", "setting": "[5]", "value": 90, "unit": "%"}, {"measurement": "blood level", "setting": "[6]; 5 minutes post-administration", "value": 78, "unit": "%"}]}
{"compound": "O=C(O)CN1CCN(CCOO)CCN(CCOO)CCN(CC(=O)O)C(Cc2ccc(NC(=O)CCCCC3SCC4NC(=O)NC43)cc2)C1", "note": "(centres unmarked) [Y-90-SC DOTA-Biotin, metal not drawn]", "values": [{"measurement": "% Avidin Binding", "setting": "[3]; 20 Hours at 37° C.", "value": 60, "unit": "%"}, {"measurement": "% Avidin Binding", "setting": "[3]; 60 Minutes at 37° C.", "value": 98, "unit": "%"}, {"measurement": "serum stability", "setting": "[3]; in comparison to DOTA-LC-biotin", "value": "significantly improved serum stability"}]}
